Experiment [1] has as its system JAK1-dependent STAT6 phosphorylation downstream of IL-13 stimulation in TF-1 human erythroleukemia cells. The experiment is described as follows: JAK1 pathway assay in TF-1 cells (IL-13-pSTAT6, MSD). Format: cell-based. The note with it: Homo sapiens, TF-1, TF-1 cells, read-out: IL13-pSTAT6 EC50_TF-1. The protocol: JAK1 Pathway Assay in Cell Lines was Carried Out as Follows:
Inhibitor potency (EC50) was determined in cell-based assays designed to measure JAK1 dependent STAT phosphorylation.
In one assay approach, TF-1 human erythroleukemia cells obtained from the American Type Culture Collection (ATCC; Manassas, Va.) were used to measure JAK1-dependent STAT6 phosphorylation downstream of IL-13 stimulation. Prior to use in the assays, TF-1 cells were starved of GM-CSF overnight in OptiMEM medium (Life Technologies, Grand Island, N.Y.) supplemented with 0.5% charcoal/dextran stripped fetal bovine serum (FBS), 0.1 mM non-essential amino acids (NEAA), and 1 mM sodium pyruvate. The assays were run in 384-well plates in serum-free OptiMEM medium using 300,000 cells per well. In a second assay approach, BEAS-2B human bronchial epithelial cells obtained from ATCC were plated at 100,000 cells per well of a 96-well plate one day prior to the experiment. The BEAS-2B assay was run in complete growth medium (bronchial epithelial basal medium plus bulletkit; Lonza; Basel, Switzerland).
Test compounds were serially diluted 1:2 in DMSO and then diluted 1:50 in medium just before use. Diluted compounds were added to the cells, for a final DMSO concentration of 0.2%, and incubated for 30 min (for the TF-1 assay) or 1 hr (for the BEAS-2B assay) at 37° C. Then, cells were stimulated with human recombinant cytokine at their respective EC90 concentrations, as previously determined for each individual lot. Cells were stimulated with IL-13 (R&D Systems, Minneapolis, Minn.) for 15 min at 37° C. The TF-1 cell reactions were stopped by the direct addition of 10× lysis buffer (Cell Signaling Technologies, Danvers, Mass.), whereas the BEAS-2B cell incubations were halted by the removal of medium and addition of 1× lysis buffer. The resultant samples were frozen in the plates at −80° C. Compound mediated inhibition of STAT6 phosphorylation was measured in the cell lysates using MesoScale Discovery (MSD) technology (Gaithersburg, Md.).

In experiment [2] the target is isolated recombinant JAK1 kinase domain (Homo sapiens (Human), UniProt P23458). In words: JAK1 enzyme assay (Caliper LabChip, peptide phosphorylation). Format: biochemical. The settings on record: isolated recombinant JAK1 kinase domain, 25 μM ATP.
isolated recombinant JAK1 kinase domain, sequence (P23458 875-1153): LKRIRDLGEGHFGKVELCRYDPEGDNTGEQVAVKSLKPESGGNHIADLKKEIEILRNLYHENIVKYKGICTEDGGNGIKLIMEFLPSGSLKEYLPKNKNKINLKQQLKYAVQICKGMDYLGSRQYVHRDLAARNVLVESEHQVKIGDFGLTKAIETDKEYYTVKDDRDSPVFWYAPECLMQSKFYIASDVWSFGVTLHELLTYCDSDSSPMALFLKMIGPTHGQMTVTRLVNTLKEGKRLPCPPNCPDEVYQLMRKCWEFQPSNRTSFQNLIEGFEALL
Experiment [3] deals with isolated recombinant JAK2 kinase domain (Homo sapiens (Human), UniProt O60674). The experiment is described as follows: JAK2 enzyme assay (Caliper LabChip, peptide phosphorylation). Format: biochemical. The settings on record: 25 μM ATP.
isolated recombinant JAK2 kinase domain, sequence (O60674 849-1124): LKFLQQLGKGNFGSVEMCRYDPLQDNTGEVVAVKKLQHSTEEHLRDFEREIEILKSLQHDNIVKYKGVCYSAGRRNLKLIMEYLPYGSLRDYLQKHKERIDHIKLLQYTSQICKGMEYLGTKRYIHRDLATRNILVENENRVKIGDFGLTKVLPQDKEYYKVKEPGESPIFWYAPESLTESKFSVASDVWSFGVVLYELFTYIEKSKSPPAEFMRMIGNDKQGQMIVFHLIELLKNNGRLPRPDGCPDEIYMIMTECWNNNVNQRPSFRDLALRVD

Broadly, the Ki is a measure of affinity in units of concentration, obtained from inhibition or displacement. `O=C(Nc1cn(CC(=O)N2CCC[C@H]2CO)nc1-c1cc(Cl)ccc1OC(F)F)c1cnn2cccnc12` [Example 268, N-[3-[5-chloro-2-(difluoromethoxy)phenyl]-1-[2-[(2S)-2-(hydroxymethyl)pyrrolidin-1-yl]-2-oxo-ethyl]pyrazol-4-yl]pyrazolo[1,5-a]pyrimidine-3-carboxamide]: in experiment [1], the EC50 was 5.5 nM. Moreover, the Ki in experiment [2] was found to be 0.49 nM.

Regarding `CN1CC2(CCN(C(=O)Cn3cc(NC(=O)c4cnn5cccnc45)c(-c4cc(Cl)ccc4OC(F)F)n3)CC2)C1` [Example 218, N-[3-[5-chloro-2-(difluoromethoxy)phenyl]-1-[2-(2-methyl-2,7-diazaspiro[3.5]nonan-7-yl)-2-oxo-ethyl]pyrazol-4-yl]pyrazolo[1,5-a]pyrimidine-3-carboxamide], the EC50 in experiment [1] amounted to 75.6 nM. Moreover, the Ki in experiment [2] worked out at 1.01 nM.

For `O=C(Nc1sc(CN2CCCCC2)nc1-c1cc(Cl)ccc1OC(F)F)c1cnn2cccnc12` [Example 263, N-[4-[5-chloro-2-(difluoromethoxy)phenyl]-2-(1-piperidylmethyl)thiazol-5-yl]pyrazolo[1,5-a]pyrimidine-3-carboxamide], the EC50 in experiment [1] turned out to be 19.2 nM. The inhibition constant (Ki) in experiment [2] was found to be 1.5 nM.

Consider `CN1CCC2CN(C(=O)Cn3cc(NC(=O)c4c(N)nn5cccnc45)c(-c4cc(Cl)ccc4OC(F)F)n3)CCC21` (stereo not shown) [Example 56, 2-amino-N-[3-[5-chloro-2-(difluoromethoxy)phenyl]-1-[2-(1-methyl-3,3a,4,6,7,7a-hexahydro-2H-pyrrolo[3,2-c]pyridin-5-yl)-2-oxo-ethyl]pyrazol-4-yl]pyrazolo[1,5-a]pyrimidine-3-carboxamide], for which the EC50 in experiment [1] was 6.9 nM. Further, the inhibitory constant (Ki) in experiment [2] came to 0.74 nM.

For the compound `CN(C)C1CCN(C(=O)C2CCN(c3nc(-c4cc(Cl)ccc4OC(F)F)c(NC(=O)c4cnn5cccnc45)s3)CC2)CC1` [Example 197, N-[4-[5-chloro-2-(difluoromethoxy)phenyl]-2-[4-[4-(dimethylamino)piperidine-1-carbonyl]-1-piperidyl]thiazol-5-yl]pyrazolo[1,5-a]pyrimidine-3-carboxamide], in experiment [1], the EC50 worked out at 6.2 nM.

For the compound `CN1CCC(n2cc(NC(=O)c3c(N)nn4cccnc34)c(-c3cc(Cl)ccc3OC(F)F)n2)CC1` [Example 184, 2-amino-N-[3-[5-chloro-2-(difluoromethoxy)phenyl]-1-(1-methyl-4-piperidyl)pyrazol-4-yl]pyrazolo[1,5-a]pyrimidine-3-carboxamide], the EC50 in experiment [1] is 3.5 nM.

In the case of `CN1CC2(CCN(C(=O)Cn3cc(NC(=O)c4cnn5cccnc45)c(-c4cc(Cl)ccc4OC(F)F)n3)C2)C1` [Example 221, N-[3-[5-chloro-2-(difluoromethoxy)phenyl]-1-[2-(2-methyl-2,6-diazaspiro[3.4]octan-6-yl)-2-oxo-ethyl]pyrazol-4-yl]pyrazolo[1,5-a]pyrimidine-3-carboxamide], in experiment [1], the EC50 was determined as 130 nM. Further, the Ki in experiment [2] turned out to be 0.92 nM.

`CN1C[C@H]2C[C@@H]1CN2C(=O)Cn1cc(NC(=O)c2c(N)nn3cccnc23)c(-c2cc(Cl)ccc2OC(F)F)n1` [Example 252, 2-amino-N-[3-[5-chloro-2-(difluoromethoxy)phenyl]-1-[2-[(1R,4R)-5-methyl-2,5-diazabicyclo[2.2.1]heptan-2-yl]-2-oxo-ethyl]pyrazol-4-yl]pyrazolo[1,5-a]pyrimidine-3-carboxamide]: the EC50 in experiment [1] is 43 nM.

Turning to `O=C(Nc1cn(CC(=O)N2CCC(NCCc3ccc(C(F)(F)F)cc3)CC2)nc1-c1cc(Cl)ccc1OC(F)F)c1cnn2cccnc12` [Example 93, N-[3-[5-chloro-2-(difluoromethoxy)phenyl]-1-[2-oxo-2-[4-[2-[4-(trifluoromethyl)phenyl]ethylamino]-1-piperidyl]ethyl]pyrazol-4-yl]pyrazolo[1,5-a]pyrimidine-3-carboxamide], in experiment [1], the EC50 is 95.9 nM. In addition, the Ki in experiment [2] is 1.28 nM.

As for `Nc1nn2cccnc2c1C(=O)Nc1cn(C2CCN(CCCC(=O)N3CCOCC3)CC2)nc1-c1cc(Cl)ccc1OC(F)F` [Example 147, 2-amino-N-[3-[5-chloro-2-(difluoromethoxy)phenyl]-1-[1-(4-morpholino-4-oxo-butyl)-4-piperidyl]pyrazol-4-yl]pyrazolo[1,5-a]pyrimidine-3-carboxamide], the EC50 in experiment [1] was determined as 11.8 nM. In addition, in experiment [2], the Ki was 0.55 nM.

With `Nc1nn2cccnc2c1C(=O)Nc1cn(CC(=O)N2CCC(O)(c3ccccc3)CC2)nc1-c1cc(Cl)ccc1OC(F)F` [Example 286, 2-amino-N-[3-[5-chloro-2-(difluoromethoxy)phenyl]-1-[2-(4-hydroxy-4-phenyl-1-piperidyl)-2-oxo-ethyl]pyrazol-4-yl]pyrazolo[1,5-a]pyrimidine-3-carboxamide], the Ki in experiment [2] is 0.54 nM; in experiment [3], 0.26 nM.

Regarding `O=C(Nc1cn(CC(=O)N2CCN(CCOCCO)CC2)nc1-c1cc(Cl)ccc1OC(F)F)c1cnn2cccnc12` [Example 231, N-[3-[5-chloro-2-(difluoromethoxy)phenyl]-1-[2-[4-[2-(2-hydroxyethoxy)ethyl]piperazin-1-yl]-2-oxo-ethyl]pyrazol-4-yl]pyrazolo[1,5-a]pyrimidine-3-carboxamide], the Ki in experiment [2] came to 0.54 nM; in experiment [3], 1.18 nM.

As to `O=C(Nc1cn(CC(=O)N2CCC(O)(c3ccncc3)CC2)nc1-c1cc(Cl)ccc1OC(F)F)c1cnn2cccnc12` [Example 276, N-[3-[5-chloro-2-(difluoromethoxy)phenyl]-1-[2-[4-hydroxy-4-(4-pyridyl)-1-piperidyl]-2-oxo-ethyl]pyrazol-4-yl]pyrazolo[1,5-a]pyrimidine-3-carboxamide], the values for the Ki in experiment [2] and in experiment [3] were 0.23 nM and 0.18 nM, respectively.

Take `O=C(Nc1cn(CC(=O)N2CCN(c3ccccc3)CC2)nc1-c1cc(Cl)ccc1OC(F)F)c1cnn2cccnc12` [Example 236, N-[3-[5-chloro-2-(difluoromethoxy)phenyl]-1-[2-oxo-2-(4-phenylpiperazin-1-yl)ethyl]pyrazol-4-yl]pyrazolo[1,5-a]pyrimidine-3-carboxamide]: the inhibition constant (Ki) in experiment [2] is 0.41 nM; in experiment [3], 0.74 nM.

As to `N#Cc1ccc(N2CCN(C(=O)Cn3cc(NC(=O)c4cnn5cccnc45)c(-c4cc(Cl)ccc4OC(F)F)n3)CC2)cc1` [Example 237, N-[3-[5-chloro-2-(difluoromethoxy)phenyl]-1-[2-[4-(4-cyanophenyl)piperazin-1-yl]-2-oxo-ethyl]pyrazol-4-yl]pyrazolo[1,5-a]pyrimidine-3-carboxamide], the Ki in experiment [2] was determined as 0.32 nM; in experiment [3] it was 0.76 nM.

For `COCCN1CCN(C(=O)Cn2cc(NC(=O)c3c(N)nn4cccnc34)c(-c3cc(Cl)ccc3OC(F)F)n2)CC1` [Example 245, 2-amino-N-[3-[5-chloro-2-(difluoromethoxy)phenyl]-1-[2-[4-(2-methoxyethyl)piperazin-1-yl]-2-oxo-ethyl]pyrazol-4-yl]pyrazolo[1,5-a]pyrimidine-3-carboxamide], the values for the Ki in experiment [2] and in experiment [3] were 0.35 nM and 0.22 nM, respectively.

For `CN1CCN(C(=O)Cn2cc(NC(=O)c3cnn4cccnc34)c(-c3cc(Cl)ccc3OC(F)F)n2)C[C@@H]1CO` [Example 234, N-[3-[5-chloro-2-(difluoromethoxy)phenyl]-1-[2-[(3R)-3-(hydroxymethyl)-4-methyl-piperazin-1-yl]-2-oxo-ethyl]pyrazol-4-yl]pyrazolo[1,5-a]pyrimidine-3-carboxamide], the Ki in experiment [2] was found to be 0.58 nM; in experiment [3], 1.22 nM.

As for `Nc1nn2cccnc2c1C(=O)Nc1cn([C@@H]2CCNC2)nc1-c1cc(Cl)ccc1OC(F)F` [Example 185, 2-amino-N-[3-[5-chloro-2-(difluoromethoxy)phenyl]-1-[(3R)-pyrrolidin-3-yl]pyrazol-4-yl]pyrazolo[1,5-a]pyrimidine-3-carboxamide], the figures for the Ki in experiment [2] and in experiment [3] were 0.59 nM and 0.31 nM, respectively.

Turning to `O=C(Nc1cn(CC(=O)N2CCC(O)(CO)CC2)nc1-c1cc(Cl)ccc1OC(F)F)c1cnn2cccnc12` [Example 272, N-[3-[5-chloro-2-(difluoromethoxy)phenyl]-1-[2-[4-hydroxy-4-(hydroxymethyl)-1-piperidyl]-2-oxo-ethyl]pyrazol-4-yl]pyrazolo[1,5-a]pyrimidine-3-carboxamide], the Ki was 0.33 nM in experiment [2] and 0.78 nM in experiment [3].

On to `O=C(Nc1cn(CC(=O)N2CCN(CCCO)CC2)nc1-c1cc(Cl)ccc1OC(F)F)c1cnn2cccnc12` [Example 230, N-[3-[5-chloro-2-(difluoromethoxy)phenyl]-1-[2-[4-(3-hydroxypropyl)piperazin-1-yl]-2-oxo-ethyl]pyrazol-4-yl]pyrazolo[1,5-a]pyrimidine-3-carboxamide], for which the inhibition constant (Ki) was 0.61 nM in experiment [2] and 0.71 nM in experiment [3].

Values taken from patent US9346815B2, “5-chloro-2-difluoromethoxyphenyl pyrazolopyrimidine compounds, compositions and methods of use thereof” (Genentech, Inc., priority 2014, dated 2016).
